# Laboratory results from US7781436B2 (Hoffmann-La Roche Inc., priority 2005, dated 2010).
# Where a name gives a salt, the structure may show the parent alone.
# Target: T1, human V1a receptor (Homo sapiens, UniProt P37288)
# T1 construct: expressed in transfected cells; host or cells: HEK293 cells, transiently transfected; membranes prepared
# Assay: human V1a receptor binding (3H-Vasopressin SPA, membranes of transfected HEK293 cells)
# Settings: not given
# Procedure: The human V1a receptor was cloned by RT-PCR from total human liver RNA. The coding sequence was subcloned in an expression vector after sequencing to confirm the identity of the amplified sequence. […] Cell membranes were prepared from HEK293 cells transiently transfected with the expression vector and grown in 20 liter fermenters with the following protocol.
# 50 g of cells are resuspended in 30 ml freshly prepared ice cold Lysis buffer (50 mM HEPES, 1 mM EDTA, 10 mM MgCl2 adjusted to pH=7.4+ complete cocktail of protease inhibitor (Roche Diagnostics)). Homogenized with Polytron for 1 min and sonicated on ice for 2×2 minutes at 80% intensity (Vibracell sonicator). The preparation is centrifuged 20 min at 500 g at 4° C., the pellet is discarded and the supernatant centrifuged 1 hour at 43,000 g at 4° C. (19'000 rpm). The pellet is resuspended in 12.5 ml Lysis buffer+12.5 ml Sucrose 20% and homogenized using a Polytron for 1-2 min. The protein concentration is determined by the Bradford method, and aliquots are stored at −80° C. until use. For binding studies 60 mg Yttrium silicate SPA beads (Amersham) are mixed with an aliquot of membrane in binding buffer (50 mM Tris, 120 mM NaCl, 5 mM KCl, 2 mM CaCl2, 10 mM MgCl2) for 15 minutes with mixing. 50 ul of bead/membrane mixture is then added to each well of a 96 well plate, followed by 50 ul of 4 nM 3H-Vasopressin (American Radiolabeled Chemicals). For total binding measurement 100 ul of binding buffer are added to the respective wells, for non-specific binding 100 ul of […] cold vasopressin and for compound testing 100 ul of a serial dilution of each compound in 2% DMSO. The plate is incubated 1 h at room temperature, centrifuged 1 min at 1000 g and counted on a Packard Top-Count. Non-specific binding counts are subtracted from each well, and data is normalized to the maximum specific binding set at 100%. To calculate an IC 50 the curve is fitted using a non-linear regression model (XLfit) and the Ki is calculated using the Cheng-Prussoff equation.
# T1 sequence (P37288 whole entry): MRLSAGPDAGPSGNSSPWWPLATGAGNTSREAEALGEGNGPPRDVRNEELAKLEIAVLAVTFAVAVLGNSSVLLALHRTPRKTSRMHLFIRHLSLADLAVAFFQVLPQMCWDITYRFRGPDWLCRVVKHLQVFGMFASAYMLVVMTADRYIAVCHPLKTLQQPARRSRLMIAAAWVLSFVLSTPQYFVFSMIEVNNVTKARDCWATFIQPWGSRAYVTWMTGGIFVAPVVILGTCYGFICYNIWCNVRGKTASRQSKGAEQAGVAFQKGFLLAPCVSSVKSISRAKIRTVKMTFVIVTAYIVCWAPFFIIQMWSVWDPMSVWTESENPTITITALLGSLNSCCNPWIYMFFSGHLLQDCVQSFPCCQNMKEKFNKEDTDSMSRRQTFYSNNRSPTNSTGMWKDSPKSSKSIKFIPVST
row,SMILES,Ki [nM]
1,"CN1CCC[C@@H]1Cn1cc(C(=O)N2CCN(c3ccccc3F)CC2)c2ccc(Cl)cc21 [Example 215, [6-Chloro-1-((R)-1-methyl-pyrrolidin-2-ylmethyl)-1H-indol-3-yl]-[4-(2-fluoro-phenyl)-piperazin-1-yl]-methanone]",6
2,"CC(=O)N(C)CCn1cc(C(=O)N2CCN(c3ccccc3F)CC2)c2ccc(Cl)cc21 [Example 219, N-(2-{6-Chloro-3-[4-(2-fluoro-phenyl)-piperazine-1-carbonyl]-indol-1-yl}-ethyl)-N-methyl-acetamide]",15
3,"COc1cccc(OC)c1C1CCN(C(=O)c2cn(Cc3ccccn3)c3cc(Cl)ccc23)CC1 [Example 47, (6-Chloro-1-pyridin-2-ylmethyl-1H-indol-3-yl)-[4-(2,6-dimethoxy-phenyl)-piperidin-1-yl]-methanone]",4
4,"CN(C)C(=O)Cn1cc(C(=O)N2CCC(c3ccncc3)CC2)c2ccc(Cl)cc21 [Example 122, 2-[6-Chloro-3-(3,4,5,6-tetrahydro-2H-[4,4′]bipyridinyl-1-carbonyl)-indol-1-yl]-N,N-dimethyl-acetamide]",10
5,"CN(C)C(=O)Cn1cc(C(=O)N2CCC(C#N)(c3ccccc3F)CC2)c2ccc(Cl)cc21 [Example 61, 2-{6-Chloro-3-[4-cyano-4-(2-fluoro-phenyl)-piperidine-1-carbonyl]-indol-1-yl}-N,N-dimethyl-acetamide]",13
6,"CNC(=O)Cn1cc(C(=O)N2CCN(c3ccccc3F)CC2)c2ccc(Cl)cc21 [Example 176, 2-{6-Chloro-3-[4-(2-fluoro-phenyl)-piperazine-1-carbonyl]-indol-1-yl}-N-methyl-acetamide]",8
7,"CN(C)C(=O)Cn1cc(C(=O)N2CCN(c3ccc(F)cc3F)CC2)c2ccc(Cl)cc21 [Example 205, 2-{6-Chloro-3-[4-(2,4-difluoro-phenyl)-piperazine-1-carbonyl]-indol-1-yl}-N,N-dimethyl-acetamide]",10
8,"O=C(c1cn(C[C@H]2CCCN2)c2cc(Cl)ccc12)N1CCN(c2ccccc2F)CC1 [Example 214, (6-Chloro-1-(R)-1-pyrrolidin-2-ylmethyl-1H-indol-3-yl)-[4-(2-fluoro-phenyl)-piperazin-1-yl]-methanone]",16
9,"CN1CCC[C@H]1Cn1cc(C(=O)N2CCN(c3ccccc3F)CC2)c2ccc(Cl)cc21 [Example 203, [6-Chloro-1-((S)-1-methyl-pyrrolidin-2-ylmethyl)-1H-indol-3-yl]-[4-(2-fluoro-phenyl)-piperazin-1-yl]-methanone]",2
10,"COc1ccccc1C1CCN(C(=O)c2cn(Cc3cc(F)cc(F)c3)c3cc(Cl)ccc23)CC1 [Example 56, [6-Chloro-1-(3,5-difluoro-benzyl)-1H-indol-3-yl]-[4-(2-methoxy-phenyl)-piperidin-1-yl]-methanone]",2
11,"COc1ccccc1N1CCN(C(=O)c2cn(CC(=O)N3CCN(C)CC3)c3cc(Cl)ccc23)CC1 [Example 153, 2-{6-Chloro-3-[4-(2-methoxy-phenyl)-piperazine-1-carbonyl]-indol-1-yl}-1-(4-methyl-piperazin-1-yl)-ethanone]",23

# Same assay, conditions: displacement of 4 nM 3H-Vasopressin, HEK293 cell membranes, Ki by Cheng-Prussoff from IC50; read-out: Ki
row,SMILES,Ki [nM]
1,"CC(C)Oc1ccccc1C1CCN(C(=O)c2cn(CC(=O)N(C)C)c3cc(Cl)ccc23)CC1 [Example 66, 2-{6-Chloro-3-[4-(2-isopropoxy-phenyl)-piperidine-1-carbonyl]-indol-1-yl}-N,N-dimethyl-acetamide]",4
2,"O=C(Cn1cc(C(=O)N2CCC(c3ccccc3F)CC2)c2ccc(Cl)cc21)N1CCNCC1 [Example 118, 2-{6-Chloro-3-[4-(2-fluoro-phenyl)-piperidine-1-carbonyl]-indol-1-yl}-1-piperazin-1-yl-ethanone hydrochloride]",12
3,"CN(C)CCn1cc(C(=O)N2CCN(c3ccccc3F)CC2)c2ccc(Cl)cc21 [Example 171, [6-Chloro-1-(2-dimethylamino-ethyl)-1H-indol-3-yl]-[4-(2-fluoro-phenyl)-piperazin-1-yl]-methanone]",7
4,"COc1ccccc1C1CCN(C(=O)c2cn(CC(=O)OC(C)(C)C)c3cc(Cl)ccc23)CC1 [Example 59, {6-Chloro-3-[4-(2-methoxy-phenyl)-piperidine-1-carbonyl]-indol-1-yl}-acetic acid tert-butyl ester]",2
5,"CNC(=O)Cn1cc(C(=O)N2CCC(c3ccccc3C(F)(F)F)CC2)c2ccc(Cl)cc21 [Example 96, 2-{6-Chloro-3-[4-(2-trifluoromethyl-phenyl)-piperidine-1-carbonyl]-indol-1-yl}-N-methyl-acetamide]",11
6,"CN(C)C(=O)Cn1cc(C(=O)N2CCC(c3cccc4c3OCC4)CC2)c2ccc(Cl)cc21 [Example 72, 2-{6-Chloro-3-[4-(2,3-dihydro-benzofuran-7-yl)-piperidine-1-carbonyl]-indol-1-yl}-N,N-dimethyl-acetamide]",3
7,"COc1cccc(OC)c1C1CCN(C(=O)c2cn(CC(=O)N(C)C)c3ccccc23)CC1 [Example 62, 2-{3-[4-(2,6-Dimethoxy-phenyl)-piperidine-1-carbonyl]-indol-1-yl}-N,N-dimethyl-acetamide]",11
8,"CN(C)C(=O)Cn1cc(C(=O)N2CCN(c3ncccc3C(F)(F)F)CC2)c2ccc(Cl)cc21 [Example 211, 2-{6-Chloro-3-[4-(3-trifluoromethyl-pyridin-2-yl)-piperazine-1-carbonyl]-indol-1-yl}-N,N-dimethyl-acetamide]",13
9,"CNC(=O)Cn1cc(C(=O)N2CCN(c3ccc(F)cc3F)CC2)c2ccc(Cl)cc21 [Example 190, 2-{6-Chloro-3-[4-(2,4-difluoro-phenyl)-piperazine-1-carbonyl]-indol-1-yl}-N-methyl-acetamide]",19
10,"CCOc1ccccc1N1CCN(C(=O)c2cn(CC(=O)N(C)C)c3cc(Cl)ccc23)CC1 [Example 152, 2-{6-Chloro-3-[4-(2-ethoxy-phenyl)-piperazine-1-carbonyl]-indol-1-yl}-N,N-dimethyl-acetamide]",14
11,"COc1ccccc1N1CCN(C(=O)c2cn(CC(=O)N(C)C)c3cc(Cl)ccc23)CC1 [Example 151, 2-{6-Chloro-3-[4-(2-methoxy-phenyl)-piperazine-1-carbonyl]-indol-1-yl}-N,N-dimethyl-acetamide]",14
12,"CN(C)C(=O)Cn1cc(C(=O)N2CCC(c3ccccc3F)CC2)c2ccc(Cl)cc21 [Example 114, 2-{6-Chloro-3-[4-(2-fluoro-phenyl)-piperidine-1-carbonyl]-indol-1-yl}-N,N-dimethyl-acetamide]",3
13,"CNC(=O)Cn1cc(C(=O)N2CCN(c3ncccc3C(F)(F)F)CC2)c2ccc(Cl)cc21 [Example 196, 2-{6-Chloro-3-[4-(3-trifluoromethyl-pyridin-2-yl)-piperazine-1-carbonyl]-indol-1-yl}-N-methyl-acetamide]",26
14,"COc1ccccc1C1CCN(C(=O)c2cn(CC(=O)N3CCN(C)CC3)c3cc(Cl)ccc23)CC1 [Example 58, 2-{6-Chloro-3-[4-(2-methoxy-phenyl)-piperidine-1-carbonyl]-indol-1-yl}-1-(4-methyl-piperazin-1-yl)-ethanone]",9
15,"COc1cccc(OC)c1C1CCN(C(=O)c2cn(CCN(C)C)c3cc(Cl)ccc23)CC1 [Example 52, [6-Chloro-1-(2-dimethylamino-ethyl)-1H-indol-3-yl]-[4-(2,6-dimethoxy-phenyl)-piperidin-1-yl]-methanone]",4
16,"COc1cccc(OC)c1C1CCN(C(=O)c2cn(CC(=O)N(C)C)c3cc(Cl)ccc23)CC1 [Example 43, 2-{6-Chloro-3-[4-(2,6-dimethoxy-phenyl)-piperidine-1-carbonyl]-indol-1-yl}-N,N-dimethyl-acetamide]",2
17,"CNC(=O)Cn1cc(C(=O)N2CCN(c3ncccc3I)CC2)c2ccc(Cl)cc21 [Example 225, 2-{6-Chloro-3-[4-(3-iodo-pyridin-2-yl)-piperazine-1-carbonyl]-indol-1-yl}-N-methyl-acetamide]",12
18,"NC(=O)Cn1cc(C(=O)N2CCN(c3ccccc3F)CC2)c2ccc(Cl)cc21 [Example 175, 2-{6-Chloro-3-[4-(2-fluoro-phenyl)-piperazine-1-carbonyl]-indol-1-yl}-acetamide]",32
19,"CNC(=O)Cn1cc(C(=O)N2CCC(c3ccccc3OC(F)(F)F)CC2)c2ccc(Cl)cc21 [Example 90, 2-{6-Chloro-3-[4-(2-trifluoromethoxy-phenyl)-piperidine-1-carbonyl]-indol-1-yl}-N-methyl-acetamide]",8
20,"COc1cccc(OC)c1C1CCN(C(=O)c2c[nH]c3cc(Cl)ccc23)CC1 [Example 40, (6-Chloro-1H-indol-3-yl)-[4-(2,6-dimethoxy-phenyl)-piperidin-1-yl]-methanone]",8
